Source: ChEMBL document CHEMBL1201862, “PubChem BioAssay data set” (2004)
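Tested at 5 concentrations; 48 h exposure; 96-well plates; endpoints linearly interpolated, else capped at highest concentration. Here, GI50 denotes the concentration required for 50% inhibition of growth.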 Calls of active or inactive are those of the source. Cut-off read from the data, not from the text of the source: active = GI50 up to about 1.1 µM and inactive = higher.

Key:
Assay in all cases: NCI-60 cell line screen, 48 h
[1] = test system: A498
[2] = test system: ACHN
[3] = test system: COLO 205
[4] = test system: DMS-273
[5] = test system: HCC 2998
[6] = test system: HOP-62
[7] = test system: HOP-92
[8] = test system: KM12
[9] = test system: M14
[10] = test system: NCI-H23
[11] = test system: NCI-H522
[12] = test system: RPMI-8226
[13] = test system: SK-OV-3
[14] = test system: SNB-19
[15] = test system: U-251
[16] = test system: UO-31
[17] = test system: DU-145
[18] = test system: MDA-MB-435
[19] = test system: PC-3

Compound	GI50 [1]	GI50 [2]	GI50 [3]	GI50 [4]	GI50 [5]	GI50 [6]	GI50 [7]	GI50 [8]	GI50 [9]	GI50 [10]	GI50 [11]	GI50 [12]	GI50 [13]	GI50 [14]	GI50 [15]	GI50 [16]	GI50 [17]	GI50 [18]	GI50 [19]
COC(=O)C1=C(C)N(NC(N)=O)C2(N)N(NC(N)=O)C(C)=C(C(=O)OC)C12C#N (stereo not given)	> 100 µM (inactive)	> 100 µM (inactive)	> 100 µM (inactive)	> 100 µM (inactive)	> 100 µM (inactive)	> 100 µM (inactive)	> 100 µM (inactive)	> 100 µM (inactive)	> 100 µM (inactive)	> 100 µM (inactive)	> 100 µM (inactive)	> 100 µM (inactive)	> 100 µM (inactive)	> 100 µM (inactive)	> 100 µM (inactive)	> 100 µM (inactive)	–	–	–
O=C1C2Cc3ccccc3CN2C(=O)N1CN1CCN(CN2C(=O)C3Cc4ccccc4CN3C2=O)CC1 (stereo not given)	> 100 µM (inactive)	> 100 µM (inactive)	> 100 µM (inactive)	> 100 µM (inactive)	> 100 µM (inactive)	> 100 µM (inactive)	> 100 µM (inactive)	> 100 µM (inactive)	–	> 100 µM (inactive)	> 100 µM (inactive)	> 100 µM (inactive)	> 100 µM (inactive)	> 100 µM (inactive)	> 100 µM (inactive)	> 100 µM (inactive)	–	–	–
COc1cc(/C=C2\CCC(C)(CN(C)C)C2=O)cc(OC)c1OC (stereo not given)	> 100 µM (inactive)	> 100 µM (inactive)	> 100 µM (inactive)	> 100 µM (inactive)	> 100 µM (inactive)	> 100 µM (inactive)	> 100 µM (inactive)	> 100 µM (inactive)	> 100 µM (inactive)	> 100 µM (inactive)	50.7 µM (inactive)	40.8 µM (inactive)	> 100 µM (inactive)	> 100 µM (inactive)	> 100 µM (inactive)	> 100 µM (inactive)	–	–	–
CCCCCCCCCCCCCCCC(=O)OCC1OC(OC)C2NP(=O)(N(CCCl)CCCl)OC1C2O (stereo not given)	10.6 µM (inactive)	0.953 µM (active)	4.22 µM (inactive)	0.152 µM (active)	2.54 µM (inactive)	1 µM (active)	0.822 µM (active)	16.3 µM (inactive)	4.31 µM (inactive)	1.21 µM (inactive)	0.916 µM (active)	2.51 µM (inactive)	11.5 µM (inactive)	2.61 µM (inactive)	1.32 µM (inactive)	7.36 µM (inactive)	7.41 µM (inactive)	7.55 µM (inactive)	2.5 µM (inactive)
N#Cc1cccc(/C=N/C23CC4CC(CC(C4)C2)C3)c1	> 100 µM (inactive)	> 100 µM (inactive)	> 100 µM (inactive)	> 100 µM (inactive)	> 100 µM (inactive)	> 100 µM (inactive)	> 100 µM (inactive)	> 100 µM (inactive)	> 100 µM (inactive)	> 100 µM (inactive)	> 100 µM (inactive)	52.2 µM (inactive)	> 100 µM (inactive)	> 100 µM (inactive)	> 100 µM (inactive)	> 100 µM (inactive)	–	–	–
C1CCN(C2OC3C(COC3N3CCCCC3)OC2OC2CCO[C@@H]2N2CCCCC2)CC1 (stereo not given in full)	34.1 µM (inactive)	25.9 µM (inactive)	38.3 µM (inactive)	32.1 µM (inactive)	> 100 µM (inactive)	36.2 µM (inactive)	11 µM (inactive)	78.5 µM (inactive)	40.6 µM (inactive)	21.1 µM (inactive)	12.4 µM (inactive)	17.9 µM (inactive)	32.6 µM (inactive)	36.2 µM (inactive)	30.5 µM (inactive)	44.5 µM (inactive)	–	–	–
c1cc2c(cnc3cscc32)s1	> 100 µM (inactive)	> 100 µM (inactive)	–	> 100 µM (inactive)	> 100 µM (inactive)	> 100 µM (inactive)	> 100 µM (inactive)	> 100 µM (inactive)	> 100 µM (inactive)	> 100 µM (inactive)	> 100 µM (inactive)	> 100 µM (inactive)	–	> 100 µM (inactive)	> 100 µM (inactive)	> 100 µM (inactive)	–	–	–
COC(=O)C1=C(c2ccc(OC)c(OC)c2)OC(c2cc(OC)c(OC)c(OC)c2)C1 (stereo not given)	25.6 µM (inactive)	36.4 µM (inactive)	–	18.7 µM (inactive)	> 100 µM (inactive)	19.7 µM (inactive)	23.2 µM (inactive)	33.1 µM (inactive)	65.6 µM (inactive)	99.3 µM (inactive)	–	> 100 µM (inactive)	15.3 µM (inactive)	–	13.5 µM (inactive)	> 100 µM (inactive)	–	–	–
